{"source": "ChEMBL document CHEMBL1201862", "about": "“PubChem BioAssay data set” (2004)", "key": {"[1]": {"assay": "Luminescence Cell-Based Dose Confirmation HTS to Identify Activators of 5'UTR Stem-Loop Driven Alpha-Synuclein mRNA Translation in H4 Neuroglioblastoma Cells. [Related pubchem assays: 1829 (Project Summary), 1814 (Primary HTS)]", "type": "functional"}, "[2]": {"assay": "Luminescence Cell-Based Dose Response HTS to Identify Activators of Luciferase Translation or Activity in H4 […] Cells. [Related pubchem assays: 1829 (Project Summary), 1814 (Primary HTS)]", "type": "functional"}, "[3]": {"assay": "microbe, parasite or virus in culture", "type": "functional", "conditions": "Mycobacterium tuberculosis"}, "[4]": {"system": "Vero", "assay": "cells", "type": "functional, cell-based", "conditions": "Chlorocebus sabaeus"}, "[5]": {"system": "H4", "assay": "Luminescence Cell-Based Dose Response HTS to Identify Activators of 5'UTR Stem-Loop Driven Prion Protein mRNA Translation in H4 Neuroglioblastoma Cells. [Related pubchem assays: 1829 (Project Summary), 1814 (Primary HTS)]", "type": "functional", "conditions": "Homo sapiens"}, "[6]": {"system": "Vero", "assay": "cells", "type": "functional", "conditions": "Chlorocebus sabaeus"}, "[7]": {"assay": "Luminescence-based cell-based high throughput dose response assay to identify activators of the DAF-12 from the parasite S. stercoralis (ssDAF-12).", "type": "functional"}, "[8]": {"target": "Disintegrin and metalloproteinase domain-containing protein 17 (Homo sapiens, UniProt P78536)", "sequence (P78536 whole entry, the tested form may be a part)": "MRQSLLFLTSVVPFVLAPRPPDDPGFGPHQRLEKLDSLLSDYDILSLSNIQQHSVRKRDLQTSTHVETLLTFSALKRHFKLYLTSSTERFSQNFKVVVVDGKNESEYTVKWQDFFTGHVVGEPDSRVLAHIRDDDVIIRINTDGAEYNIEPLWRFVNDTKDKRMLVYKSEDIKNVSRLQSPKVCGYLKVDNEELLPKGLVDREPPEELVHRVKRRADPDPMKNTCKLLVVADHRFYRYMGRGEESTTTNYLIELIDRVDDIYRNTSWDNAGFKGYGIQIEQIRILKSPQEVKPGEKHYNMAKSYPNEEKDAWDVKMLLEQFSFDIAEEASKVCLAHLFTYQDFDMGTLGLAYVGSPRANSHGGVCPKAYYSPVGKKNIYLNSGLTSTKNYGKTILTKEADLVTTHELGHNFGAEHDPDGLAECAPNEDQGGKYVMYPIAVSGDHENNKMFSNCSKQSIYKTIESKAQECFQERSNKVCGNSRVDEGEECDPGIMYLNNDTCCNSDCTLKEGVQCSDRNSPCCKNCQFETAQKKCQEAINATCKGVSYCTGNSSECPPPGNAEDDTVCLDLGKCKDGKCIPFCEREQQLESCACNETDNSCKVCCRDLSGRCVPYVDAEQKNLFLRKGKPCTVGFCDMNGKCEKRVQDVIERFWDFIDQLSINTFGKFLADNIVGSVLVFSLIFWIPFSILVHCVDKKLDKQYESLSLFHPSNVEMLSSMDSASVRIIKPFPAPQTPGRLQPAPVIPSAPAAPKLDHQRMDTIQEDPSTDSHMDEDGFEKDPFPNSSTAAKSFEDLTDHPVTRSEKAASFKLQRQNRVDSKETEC", "assay": "exosite inhibitors of ADAM17, dose response, biochemical (AID 743260)"}, "[9]": {"assay": "inhibition of ADAM10 peptide cleavage – biochemical, FRET peptide substrate, recombinant human ADAM10, selectivity assay for ADAM17 exosite inhibitor project, dose response (AID 743259);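 further: ADAM10 enzyme cleaving a FRET peptide substrate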"}, "[10]": {"target": "Ras and Rab interactor 1/Tyrosine-protein kinase ABL1 (Homo sapiens, UniProt P00519+Q13671)", "sequence (P00519 whole entry)": "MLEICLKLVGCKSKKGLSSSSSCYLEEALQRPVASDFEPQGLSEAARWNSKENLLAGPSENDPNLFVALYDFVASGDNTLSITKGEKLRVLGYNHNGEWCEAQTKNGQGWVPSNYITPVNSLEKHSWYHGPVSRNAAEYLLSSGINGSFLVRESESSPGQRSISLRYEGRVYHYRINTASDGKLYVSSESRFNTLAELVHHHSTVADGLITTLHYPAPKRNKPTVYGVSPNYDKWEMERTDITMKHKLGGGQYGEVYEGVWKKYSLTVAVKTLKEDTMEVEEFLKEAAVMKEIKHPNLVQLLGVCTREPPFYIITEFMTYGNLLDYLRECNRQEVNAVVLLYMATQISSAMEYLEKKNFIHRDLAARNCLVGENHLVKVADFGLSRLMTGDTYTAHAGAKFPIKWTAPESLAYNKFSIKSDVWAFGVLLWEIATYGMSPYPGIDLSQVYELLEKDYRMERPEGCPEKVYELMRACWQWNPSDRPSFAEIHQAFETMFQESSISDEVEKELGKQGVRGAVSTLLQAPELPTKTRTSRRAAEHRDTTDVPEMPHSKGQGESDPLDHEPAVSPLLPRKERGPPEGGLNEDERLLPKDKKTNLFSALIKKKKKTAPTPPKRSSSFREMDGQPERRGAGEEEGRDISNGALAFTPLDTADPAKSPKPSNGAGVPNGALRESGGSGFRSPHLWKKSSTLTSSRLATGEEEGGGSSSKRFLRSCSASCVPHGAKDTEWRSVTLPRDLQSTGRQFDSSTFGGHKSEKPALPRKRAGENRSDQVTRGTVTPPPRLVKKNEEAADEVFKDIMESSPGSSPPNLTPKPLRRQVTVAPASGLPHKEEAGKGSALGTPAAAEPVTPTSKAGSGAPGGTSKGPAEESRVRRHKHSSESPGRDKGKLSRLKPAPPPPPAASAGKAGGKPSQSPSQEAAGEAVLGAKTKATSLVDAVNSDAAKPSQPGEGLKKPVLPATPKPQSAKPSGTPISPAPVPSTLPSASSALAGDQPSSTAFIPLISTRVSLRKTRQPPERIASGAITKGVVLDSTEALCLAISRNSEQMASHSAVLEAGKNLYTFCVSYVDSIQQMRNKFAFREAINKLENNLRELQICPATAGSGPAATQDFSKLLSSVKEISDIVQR", "sequence (Q13671 whole entry)": "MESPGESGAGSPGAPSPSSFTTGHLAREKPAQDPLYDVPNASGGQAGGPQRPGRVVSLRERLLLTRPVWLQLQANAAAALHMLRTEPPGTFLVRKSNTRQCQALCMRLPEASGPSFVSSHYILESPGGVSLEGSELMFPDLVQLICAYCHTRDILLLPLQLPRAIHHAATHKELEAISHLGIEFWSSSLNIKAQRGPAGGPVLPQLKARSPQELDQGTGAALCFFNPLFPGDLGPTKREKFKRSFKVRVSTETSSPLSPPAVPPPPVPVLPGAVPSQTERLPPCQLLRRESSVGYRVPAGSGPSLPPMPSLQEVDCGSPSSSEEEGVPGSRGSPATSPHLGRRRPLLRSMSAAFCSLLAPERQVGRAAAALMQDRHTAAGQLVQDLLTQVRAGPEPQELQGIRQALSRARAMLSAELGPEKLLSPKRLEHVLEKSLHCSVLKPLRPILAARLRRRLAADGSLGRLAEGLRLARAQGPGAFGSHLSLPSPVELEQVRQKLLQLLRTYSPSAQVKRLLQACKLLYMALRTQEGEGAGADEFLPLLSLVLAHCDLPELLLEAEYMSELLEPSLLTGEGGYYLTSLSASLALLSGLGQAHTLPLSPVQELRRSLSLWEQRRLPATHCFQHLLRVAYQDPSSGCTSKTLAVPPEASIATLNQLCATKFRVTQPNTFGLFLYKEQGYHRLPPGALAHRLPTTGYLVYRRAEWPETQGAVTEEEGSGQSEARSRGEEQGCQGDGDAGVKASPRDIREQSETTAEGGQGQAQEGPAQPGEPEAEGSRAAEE", "type": "functional"}, "[11]": {"assay": "P. falciparum Dd2 growth inhibitors, dose response, SYBR Green, cherry-picked samples (AID 1159567)", "type": "functional, cell-based"}, "[12]": {"assay": "OVCAR8 cell viability loss – plate reader, dry powder samples, PAX8 project, dose response (AID 743197)", "type": "functional, cell-based", "conditions": "OVCAR-8"}, "[13]": {"assay": "OVCAR-3 cell viability loss – plate reader, dry powder samples, PAX8 inhibitor project, dose response (AID 743044)", "type": "functional, cell-based"}, "[14]": {"target": "Paired box protein Pax-8 (Homo sapiens, UniProt Q06710)", "sequence (Q06710 whole entry)": "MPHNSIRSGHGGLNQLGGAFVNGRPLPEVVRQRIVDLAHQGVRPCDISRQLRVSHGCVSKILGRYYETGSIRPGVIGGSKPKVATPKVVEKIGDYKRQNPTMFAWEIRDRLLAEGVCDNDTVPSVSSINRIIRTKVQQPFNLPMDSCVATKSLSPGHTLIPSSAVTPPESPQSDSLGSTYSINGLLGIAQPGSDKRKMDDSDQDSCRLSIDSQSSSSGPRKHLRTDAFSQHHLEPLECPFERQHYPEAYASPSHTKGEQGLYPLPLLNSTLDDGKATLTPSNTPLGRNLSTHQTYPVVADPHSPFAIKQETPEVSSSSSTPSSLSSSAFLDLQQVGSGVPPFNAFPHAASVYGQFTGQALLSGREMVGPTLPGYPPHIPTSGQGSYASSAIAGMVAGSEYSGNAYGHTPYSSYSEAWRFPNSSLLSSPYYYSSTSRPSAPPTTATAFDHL", "assay": "PAX8 transcriptional activity inhibition in RMG-I – RMG-I cells, luciferase, cherry-pick, dose response (AID 687027);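 further: luciferase reporter driven by Pax8 target thyroperoxidase promoter measured by SteadyGlo luminescence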", "type": "functional, cell-based"}}, "note": "The source made the active and inactive calls."}
{"smiles": "CC(C)C1N=C(c2ccc3c(c2)OCO3)CC(c2ccccc2O)N1", "note": "(configuration not stated)", "values": [{"measurement": "EC50", "setting": "[1]", "result": "16.6 µM (active)"}, {"measurement": "EC50", "setting": "[2]", "result": "15.4 µM (active)"}, {"measurement": "CC50", "setting": "[3]", "result": "13.8 µM (active)"}, {"measurement": "IC50", "setting": "[4]", "result": "> 25 µM (active)"}, {"measurement": "EC50", "setting": "[5]", "result": "4.62 µM (active)"}, {"measurement": "CC50", "setting": "[6]", "result": "14.7 µM (active)"}]}
{"smiles": "Nc1ccccc1C=C1Cc2ccccc2C1=O", "values": [{"measurement": "IC50", "setting": "[7]", "result": "> 67.6 µM (inactive)"}]}
{"smiles": "OC(c1ccc(F)c(F)c1)c1nc(-c2cccc(C(F)(F)F)c2)cs1", "note": "(configuration not stated)", "values": [{"measurement": "IC50", "setting": "[8]", "result": "50.5 µM (inactive)"}, {"measurement": "IC50", "setting": "[9]", "result": "12.1 µM (inactive)"}]}
{"smiles": "CC(=O)c1cccc(-c2ccnc3c2CC(C(=O)NCc2ccc(N4CCN(C)CC4)cc2)O3)c1", "note": "(configuration not stated)", "values": [{"measurement": "IC50", "setting": "[10]", "result": "29.9 µM (inactive)"}]}
{"smiles": "COc1cc(/C=N/NC(=O)CSc2ccccn2)ccc1OC(C)C", "values": [{"measurement": "IC50", "setting": "[10]", "result": "19.1 µM (inactive)"}]}
{"smiles": "Oc1nc2ccccc2n1C1CCN(C(c2nnnn2C2CCCC2)C2CC2)CC1", "note": "(configuration not stated)", "values": [{"measurement": "IC50", "setting": "[10]", "result": "17.3 µM (inactive)"}]}
{"smiles": "CC(C)CC#Cc1ccc2c(c1)O[C@H](CN(C)S(=O)(=O)c1ccc(F)cc1)[C@@H](C)CN([C@@H](C)CO)S2(=O)=O", "values": [{"measurement": "AC50", "setting": "[11]", "result": "5.25 µM (active)"}, {"measurement": "AC50", "setting": "[12]", "result": "> 70 µM (inactive)"}, {"measurement": "AC50", "setting": "[13]", "result": "49.7 µM (active)"}, {"measurement": "AC50", "setting": "[14]", "result": "10.3 µM (active)"}]}
{"smiles": "CCOc1ccc(-n2c(SCC(=O)Nc3cc(C)c(NC(=O)c4ccccc4)cc3OC)nnc2-c2cccs2)cc1", "values": [{"measurement": "IC50", "setting": "[8]", "result": "> 69.5 µM (inactive)"}, {"measurement": "IC50", "setting": "[9]", "result": "> 69.5 µM (inactive)"}]}
{"smiles": "Nc1[nH]c(C(=O)c2ccc(Br)cc2)c(-c2ccccn2)c1C(=O)NCCc1c[nH]c2ccccc12", "values": [{"measurement": "IC50", "setting": "[8]", "result": "> 69.5 µM (inactive)"}, {"measurement": "IC50", "setting": "[9]", "result": "16.4 µM (inactive)"}]}
{"smiles": "C[C@@H]1CN([C@H](C)CO)C(=O)c2cc(NC(=O)Cc3ccccc3)ccc2O[C@@H](C)CCCCO[C@H]1CN(C)Cc1ccc(Cl)c(Cl)c1", "values": [{"measurement": "AC50", "setting": "[12]", "result": "> 70 µM (inactive)"}, {"measurement": "AC50", "setting": "[13]", "result": "28.2 µM (active)"}]}
